# Patent US11952328B2, “Selective ship inhibitors for treating disease” (THE RESEARCH FOUNDATION FOR THE STATE UNIVERSITY OF NEW YORK, priority 2018, dated 2024)
# Test system: NK cells
# Assay: NK cell IFNγ production by intracellular flow cytometry after two-day in vivo treatment
# Set-up: species or system mice
# Settings: two-day 3AC vs vehicle
# Procedure: FIGS. 3B-3E show activation of NK cells and T cells following exposure to the SHIP1 inhibitor 3AC in vivo. NK cells from two-day 3AC- or vehicle-treated mice were stimulated by incubation on uncoated plates, on plates coated with anti-NK1.1, anti-NKp46, or anti-NKG2D antibody, or on uncoated plates but in the presence of PMA and ionomycin. Representative flow plots (FIG. 3B) and box and whisker plots (FIG. 3C) show the frequency of NK cell production of IFNγ determined by intracellular flow cytometry. […] Anti-CD107a (LAMP-1) PE antibody was added for the final 5 hours of incubation. Degranulation of CD8+ T cells was determined by analysis of CD107a expression by flow cytometry. […]
# SHIP1 is recruited directly to the T cell receptor (TcR), as well as to the scaffolding protein Dokl that limits T cell activation by the TcR (Reginald, K., Revisiting the timing of action of the PAG adaptor using quantitative proteomics analysis of primary T cells. J Immunol. (2015); 195: 5472-5481; Waterman, P. M. et al., The inositol 5phosphatase SHIP-1 and adaptors Dok-1 and 2 play central roles in CD4-mediated inhibitory signaling. Immunol Lett. (2012); 143: 122-130; Freeburn, R. W. et al., Evidence that SHIP-1 contributes to phosphatidylinositol 3,4,5-trisphosphate metabolism in T lymphocytes and can regulate novel phosphoinositide 3-kinase effectors. […]
smiles,measurement,setting,value
"CC(C)CCC[C@@H](C)[C@H]1CC[C@H]2[C@@H]3CCC4C[C@H](N)CC[C@]4(C)[C@H]3CC[C@]12C (stereo partly drawn) [Compound 3AC, 3-α-aminocholestane]",NK cell IFNγ production,stimulated with PMA and ionomycin,no difference
same,NK cell IFNγ production,"stimulation with anti-NK1.1, anti-NKp46 or anti-NKG2D",significantly increased
